From patent US8101389B2, “Bacterial glutamine synthetases and methods of use” (Athenix Corp, priority 2006, dated 2012)
pKi: −log10 of the molar value.

Legend:
[1] = system: ags1 glutamine synthetase enzyme; experiment: Enzymatic activity of purified 6Xhis-tagged glutamine synthetases with and without glufosinate; format: biochemical, Serratia marcescens; settings: 100 uM glufosinate
Excerpt: (§1) ags1m1 (pAX3421) and ags1m2 (pAX3422) were subcloned into E. coli expression vector pRSF1B (Invitrogen) so as to create an N-terminus encoding a 6Xhis tag, purified and characterized kinetically.

[2] = system: E. coli cells with AGS1 variant AGS1m1 (pAX3421), V39I, V214M, SEQ ID NO:4; experiment: growth of E. coli on glufosinate plates, ags1m1; format: cell-based
Protocol: (§2) Mutants of the bacterial glutamine synthetase gene ags1 (SEQ ID NO:1) were created by error-prone mutagenesis using the GENEMORPH® Random Mutagenesis kit, and also using oligo-directed mutagenesis as known in the art. However, many methods are available for creating libraries of mutants. The resulting mutants were cloned into a pUC19 vector, electroporated into either XL-1 or DH5 alpha E. coli cells, and selected for growth on M63+ agar media containing antibiotic and 2, 10, or 20 mM glufosinate. Twenty-two clones were identified as growing on 20 mM glufosinate, and picked for further analysis.
ags1m2 was mutagenized by error-prone mutagenesis using GENEMORPH® II Random Mutagenesis kit (Stratagene) according to manufacturer's instructions. Mutagenized PCR product was digested with Sac I and Hind III, and ligated into a pUC vector, similarly digested with Sac I and Hind III. Ligations were transformed into E. coli cells, and plated onto M63+ plates containing antibiotic, and 125 mM glufosinate. Clones growing on 125 mM glufosinate plates were retested on 200 mM glufosinate plates, and compared to similar platings of ags1m1 and ags1m2. […] The DNA sequence of the ags open reading frame in pAX3439 was sequenced, and the gene designated as ags1m16. The DNA sequence of ags1m16 is represented herein as SEQ ID NO:31, and the amino acid sequence is represented herein as SEQ ID NO:32. […]

[3] = target: Serratia marcescens glutamine synthetase AGS1 variant AGS1m1 (pAX3421), V39I, V214M, SEQ ID NO:4 (Serratia marcescens, UniProt A0A0F6KS08, V214M/V39I); experiment: enzymatic assay of purified 6Xhis AGS1m1 with glufosinate; format: biochemical; settings: 100 uM glufosinate
Chain of Serratia marcescens glutamine synthetase AGS1 variant AGS1m1 (pAX3421), V39I, V214M, SEQ ID NO:4 (A0A0F6KS08 whole entry V39I/V214M): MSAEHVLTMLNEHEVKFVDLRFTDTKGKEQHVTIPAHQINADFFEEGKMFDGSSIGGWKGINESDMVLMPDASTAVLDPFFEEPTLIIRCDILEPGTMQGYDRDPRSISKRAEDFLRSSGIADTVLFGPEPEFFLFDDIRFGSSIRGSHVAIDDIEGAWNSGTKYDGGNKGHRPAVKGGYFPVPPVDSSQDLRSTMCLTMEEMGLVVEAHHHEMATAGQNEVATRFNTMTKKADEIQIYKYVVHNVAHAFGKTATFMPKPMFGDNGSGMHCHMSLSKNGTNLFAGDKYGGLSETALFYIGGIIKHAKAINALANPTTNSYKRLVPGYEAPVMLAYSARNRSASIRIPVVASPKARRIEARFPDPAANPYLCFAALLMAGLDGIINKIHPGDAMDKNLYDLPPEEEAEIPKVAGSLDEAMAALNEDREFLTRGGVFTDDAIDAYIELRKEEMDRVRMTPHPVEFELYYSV
Excerpt: as §1

[4] = system: E. coli cells with AGS1 variant AGS1m16 (pAX3439), F81S, P185S, H212N, G218S, I303N, SEQ ID NO:32; experiment: growth of E. coli on glufosinate plates, ags1m16; format: cell-based
Protocol: ags1m2 was mutagenized by error-prone mutagenesis using GENEMORPH® II Random Mutagenesis kit (Stratagene) according to manufacturer's instructions. Mutagenized PCR product was digested with Sac I and Hind III, and ligated into a pUC vector, similarly digested with Sac I and Hind III. Ligations were transformed into E. coli cells, and plated onto M63+ plates containing antibiotic, and 125 mM glufosinate. Clones growing on 125 mM glufosinate plates were retested on 200 mM glufosinate plates, and compared to similar platings of ags1m1 and ags1m2. […] The DNA sequence of the ags open reading frame in pAX3439 was sequenced, and the gene designated as ags1m16. The DNA sequence of ags1m16 is represented herein as SEQ ID NO:31, and the amino acid sequence is represented herein as SEQ ID NO:32. AGS1m16 differs from AGS1m2 at a single amino acid at position H212 of the protein, which is modified from Histidine (‘H’) to Asparagine (‘N’), and contains a total of five amino acid changes relative to the wild-type AGS1 (see FIG. 1 and Table 3).
(§3) Clones expressing AGS1m17, AGS1m18, AGS1m19, or AGS1m20 were all found to be able to grow on plates containing 375 mM glufosinate, whereas no growth of clones expressing AGS1m16 was observed on plates containing 375 mM glufosinate.

[5] = system: E. coli cells with AGS1 variant AGS1m7 (pAX3431), G168C, V214M, K395R, SEQ ID NO:14; experiment: growth of E. coli on glufosinate plates, ags1m7; format: cell-based; settings: 2, 10, 20, 50, and 100 mM; DH5a; Clone 10
Protocol: as §2

[6] = system: E. coli DH5α cells with TKH3; experiment: growth of DH5α with TKH3 on M63 minimal plates with glufosinate; format: cell-based; settings: 20 mM glufosinate
Protocol: To obtain the gene(s) responsible for the strain's resistance to glufosinate, a small insert plasmid genomic library was prepared from strain ATX 20345. Genomic DNA was extracted from a fresh, overnight LB culture using SDS, proteinase K cell lysis followed by CTAB/NaCl, phenol-chloroform extractions. Partial digests were performed on the genomic DNA using 0.1 units Sau3A I at 37° C. for 30 minutes followed by the addition of EDTA and incubation at 65° C. for 20 minutes to halt the reaction. Resultant DNA was approximately 4-12 kb in size. The DNA was gel purified, treated with T4 polynucletide kinase, then ligated into BamH I digested pUC18 vector. Ligations were transformed into DH5a and plated directly on M63 minimal media plates containing 20 mM glufosinate, 100 μg/ml carbenicillin, and 0.1 mM IPTG. After several days, 4 colonies had appeared, tentatively named TKH1-4. They were grown up and plasmid DNA was isolated and analyzed by digestion with EcoR I+ Hind III, and Pst I/Sac Ito compare inserts. Though all four clones contained inserts, TKH2 and TKH3 were identical by restriction digest analysis, and both contained inserts of approximately 4.9 kb.
To reconfirm that TKH2 and TKH3 confer resistance to 20 mM glufosinate, the purified plasmids were retransformed into DH5α cells. pUC18 was retransformed as a negative control. […]

[7] = target: Serratia marcescens glutamine synthetase AGS1 variant AGS1m17(AD-), F81S, P185S, H212T, V214A, G218S, I303N plus tyrosine 398 to phenylalanine, SEQ ID NO:46 (Serratia marcescens, UniProt A0A0F6KS08, F81S/G218S/H212T/I303N/P185S/V214A/Y398F); experiment: enzymatic assay, kinetics of AGS1m17(AD-); format: biochemical
Chain of Serratia marcescens glutamine synthetase AGS1 variant AGS1m17(AD-), F81S, P185S, H212T, V214A, G218S, I303N plus tyrosine 398 to phenylalanine, SEQ ID NO:46 (A0A0F6KS08 whole entry F81S/P185S/H212T/V214A/G218S/I303N/Y398F): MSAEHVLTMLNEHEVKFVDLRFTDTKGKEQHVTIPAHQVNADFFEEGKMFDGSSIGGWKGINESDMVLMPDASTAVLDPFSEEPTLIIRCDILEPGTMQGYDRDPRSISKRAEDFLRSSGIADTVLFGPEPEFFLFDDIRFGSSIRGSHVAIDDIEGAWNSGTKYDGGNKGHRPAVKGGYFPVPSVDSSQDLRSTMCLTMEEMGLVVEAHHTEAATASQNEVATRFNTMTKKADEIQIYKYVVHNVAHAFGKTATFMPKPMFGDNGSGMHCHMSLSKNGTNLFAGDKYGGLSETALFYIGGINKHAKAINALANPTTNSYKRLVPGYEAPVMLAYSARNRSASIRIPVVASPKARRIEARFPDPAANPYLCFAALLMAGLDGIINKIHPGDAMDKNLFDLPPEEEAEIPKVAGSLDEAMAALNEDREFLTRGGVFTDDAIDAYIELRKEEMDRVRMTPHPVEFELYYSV
Protocol: ags1m17(ad-) (SEQ ID NO:45) encoding the AGS1m17(AD-) protein (SEQ ID NO:46), is a variant of ags1m17 in which the putative adenylylation site has been removed by mutating the tyrosine at position 398 of AGS1 to a phenylalanine by site directed mutagenesis.
The unmodified enzyme (AGS1) was compared to AGS1(AD-) and AGS1m17(AD-) by carrying out enzymatic assays on both enzymes following purification from E. coli. A glutamine synthetase enzyme from E. coli (GlnA) was also tested.

[8] = system: E. coli cells with AGS1 variant AGS1m20, F81S, P185S, H212M, V214H, G218S, I303N, SEQ ID NO:40; experiment: growth of E. coli on glufosinate plates, ags1m20; format: cell-based
Protocol: as §3

## CP(=O)(O)CCC(N)C(=O)O (stereo not drawn) [glufosinate]
[1]
  inhibition of wild type ags1 glutamine synthetase enzyme: completely inhibited
[2]; 200 mM glufosinate
  growth on 200 mM glufosinate plates: did not grow
[2]; 2, 10, 20, 50, and 100 mM, DH5a, Clone 2
  growth on glufosinate minimal M63+ agar media: shown to grow
[3]
  activity in the presence of glufosinate: showed activity
[4]; 200 mM glufosinate
  growth on 200 mM glufosinate plates: ability to grow
[4]; 375 mM glufosinate
  growth on plates containing 375 mM glufosinate: no growth
[4]; cells containing AGS1m16
  glufosinate concentrations up to which cells are able to grow: 200 mM
[5]
  growth on glufosinate minimal M63+ agar media: shown to grow
[6]
  growth in the presence of glufosinate: grew in the presence of glufosinate
[7]
  pKi: 1.64
[7]; Table 5, Km glutamate, Ki glufosinate
  (Kcat*Ki)/Km: 110.04
[8]
  growth on plates containing 375 mM glufosinate: able to grow
